In data set [1] the target is T1, Protein-glutamine gamma-glutamyltransferase (Homo sapiens) (UniProt P21980).
T1 sequence (whole entry): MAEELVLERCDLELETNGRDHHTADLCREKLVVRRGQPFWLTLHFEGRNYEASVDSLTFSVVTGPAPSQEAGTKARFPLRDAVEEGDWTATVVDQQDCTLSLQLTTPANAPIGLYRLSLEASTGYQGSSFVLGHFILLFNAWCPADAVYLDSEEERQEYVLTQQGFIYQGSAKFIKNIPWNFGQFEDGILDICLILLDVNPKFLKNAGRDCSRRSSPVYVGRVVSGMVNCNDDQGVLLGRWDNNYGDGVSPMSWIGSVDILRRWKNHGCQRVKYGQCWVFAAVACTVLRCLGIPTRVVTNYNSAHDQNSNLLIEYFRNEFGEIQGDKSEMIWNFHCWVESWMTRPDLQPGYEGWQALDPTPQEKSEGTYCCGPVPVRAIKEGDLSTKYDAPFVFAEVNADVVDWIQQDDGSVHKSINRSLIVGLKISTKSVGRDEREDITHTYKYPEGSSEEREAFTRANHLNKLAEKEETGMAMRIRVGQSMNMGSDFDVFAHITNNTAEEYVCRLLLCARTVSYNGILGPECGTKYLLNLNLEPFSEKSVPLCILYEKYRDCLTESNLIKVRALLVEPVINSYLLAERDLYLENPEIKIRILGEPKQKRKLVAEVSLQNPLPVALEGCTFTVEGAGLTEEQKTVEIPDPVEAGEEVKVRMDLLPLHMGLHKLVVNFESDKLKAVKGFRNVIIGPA
The experiment in a line: Irreversible inhibition of recombinant human TG2 assessed as inactivation constant using Cbz-Glu(gamma-p-nitrophenyl ester)Gly as a substrate at upto 100 uM by continuous colorimetric assay.

The target in data set [2] is T1, Protein-glutamine gamma-glutamyltransferase (Homo sapiens). The experiment in a line: Irreversible inhibition of recombinant human TG2 assessed as inhibition constant using Cbz-Glu(gamma-p-nitrophenyl ester)Gly as a substrate at upto 100 uM by continuous colorimetric assay.
Data set [3] has the same target. As to the kind of experiment: Irreversible inhibition of recombinant human TG2 assessed as Kinact/Ki using Cbz-Glu(gamma-p-nitrophenyl ester)Gly as a substrate at upto 100 uM by continuous colorimetric assay.
The target is the same in data set [4].
Description: Irreversible inhibition of recombinant human TG2 assessed as inactivation constant using Cbz-Glu(gamma-p-nitrophenyl ester)Gly as a substrate by continuous colorimetric assay
The target of data set [5] is T2, Protein-glutamine gamma-glutamyltransferase (Homo sapiens, UniProt P21980).
T2 sequence (P21980 whole entry): T1 sequence (whole entry)
As to the kind of experiment: Irreversible inhibition of recombinant human TG2 assessed as inhibition constant using Cbz-Glu(gamma-p-nitrophenyl ester)Gly as a substrate by continuous colorimetric assay.

Data set [6] can be described thus: Efflux ratio of apparent permeability in MDCK-MDR1 cells. Format: ADME, cell-based, Canis lupus familiaris. The note with it: dog.
Data set [7] is described as follows: Apparent permeability across apical to basolateral side in […] cells. Type of data set: ADME, cell-based, Canis lupus familiaris. The note with it: dog, MDCK-MDR1.
The nature of data set [8]: Apparent permeability across basolateral to apical side in […] cells. The note with it: dog, MDCK-MDR1. Format: ADME, cell-based, Canis lupus familiaris.

Molecules are shown by their SMILES. Calls of active or inactive are those of the source. The rule behind the calls is not given here.

Regarding `C=CC(=O)NCC(=O)NCCNC(=O)C12CC3CC(CC(C3)C1)C2`, in data set [1], the “inactivation constant (kinact)” value was “inactive”. In addition, the “inhibition constant (Ki)” value in data set [2] was “inactive”. Further, the kinact/Ki result in data set [3] is “inactive”.
Regarding `C=CC(=O)NCC(=O)NCCCNC(=O)C12CC3CC(CC(C3)C1)C2`, the “inactivation constant (kinact)” value in data set [1] is “inactive”. For the same compound, the “inhibition constant (Ki)” value in data set [2] was “inactive”. Also, the kinact/Ki result in data set [3] is “inactive”.
Take `C=CC(=O)NCC(=O)N1CCC[C@@H](NC(=O)C23CC4CC(CC(C4)C2)C3)C1`: in data set [4], the Kinact was found to be 0.67 min⁻¹. Besides, in data set [5], the Ki was found to be 115 µM.
On the same counts, the results for `C=CC(=O)NCC(=O)N1CCC2(CC1)CCN(C(=O)C13CC4CC(CC(C4)C1)C3)C2` are 0.72 min⁻¹ and 112 µM.
In general, efflux ratio refers to the permeability from basolateral to apical divided by that in the opposite direction, in the common usage. One may read the Papp A→B as the apparent permeability from the apical to the basolateral side of a cell layer. In general, Papp B→A refers to how fast a substance crosses the layer from the basolateral side. As for `C=CC(=O)NCC(=O)N1CCN(C(=O)C23CC4CC(CC(C4)C2)C3)CC1`, the efflux ratio in data set [6] is 1.27. Also, the Kinact in data set [4] is 1.5 min⁻¹. In addition, the apparent permeability from apical to basolateral (Papp A→B) in data set [7] came out at 27.2 ×10⁻⁶ cm/s. Further, the basolateral-to-apical permeability (Papp B→A) in data set [8] stood at 34.3 ×10⁻⁶ cm/s. The Ki in data set [5] amounted to 2.82 µM.
As for `C=CC(=O)NCC(=O)N1CC2(CCN(C(=O)C34CC5CC(CC(C5)C3)C4)CC2)C1`, the “inactivation constant (kinact)” value in data set [1] was “inactive”. The “inhibition constant (Ki)” value in data set [2] is “inactive”. The kinact/Ki result in data set [3] was “inactive”.
On to `C=CC(=O)NCC(=O)NCCCCCNC(=O)C12CC3CC(CC(C3)C1)C2`, for which the “inactivation constant (kinact)” value in data set [1] is “inactive”. The “inhibition constant (Ki)” value in data set [2] was “inactive”. Also, in data set [3], the kinact/Ki entry was “inactive”.
For the compound `C=CC(=O)NCC(=O)NC1CCC(NC(=O)C23CC4CC(CC(C4)C2)C3)CC1` (configuration not stated), the “inactivation constant (kinact)” value in data set [1] was “inactive”. For the same compound, in data set [2], the “inhibition constant (Ki)” value was “inactive”. Also, the kinact/Ki result in data set [3] was “inactive”.
Regarding `C=CC(=O)NCC(=O)NC1CN(C(=O)C23CC4CC(CC(C4)C2)C3)C1`, the “inactivation constant (kinact)” value in data set [1] is “inactive”. Also, in data set [2], the “inhibition constant (Ki)” value was “inactive”. Further, the kinact/Ki entry in data set [3] is “inactive”.
Regarding `C=CC(=O)N(C)CC(=O)N1CCN(C(=O)C23CC4CC(CC(C4)C2)C3)CC1`, in data set [7], the apical-to-basolateral permeability (Papp A→B) is 19.7 ×10⁻⁶ cm/s. Also, the Papp B→A in data set [8] was 39 ×10⁻⁶ cm/s.
In the case of `C=CC(=O)NCC(=O)N1CCC2(CC1)CCN(C(=O)C13CC4CC(CC(C4)C1)C3)CC2`, the “inactivation constant (kinact)” value in data set [1] is “inactive”. For the same compound, the “inhibition constant (Ki)” value in data set [2] was “inactive”. Further, in data set [3], the kinact/Ki entry is “inactive”.
